Source: US10729132B2, “Xylophage control using antimethanogenic reagents” (Environmental Intellectual Property, Inc, priority 2015, dated 2020)

How the values were obtained:
[1] = tested on: F420-dependent NADP oxidoreductase enzyme from M. smithii; conditions: compared to the natural ligand F420; cited from earlier work
Archaea = test: Laboratory Study 5: methane concentration in control and test samples with AMRs
Method: Use of diallyl sulfide, which may be considered a synthetic garlic oil (GOS), was evaluated for its ability to control Archaea compared to the effects of other potential AMRs such as natural/pressed Garlic Oil (GO) and dehydrated Garlic Powder (GP). Control samples with and without contaminants were captured along with test samples that included contaminants and different concentrations (250 ppm and 500 ppm) of different AMRs (GO, GOS and GP). The concentration of methane in each of the samples was measured at 0, 9, 16 and 23 days.

| SMILES | affinity for the model protein [1] | length and magnitude of antimethanogenic responses (Archaea; 500 ppm lasting longer than 250 ppm) | control response in terms of methane production (Archaea; after 23 days incubation, 250 ppm and 500 ppm) |
| --- | --- | --- | --- |
| CC[C@H](C)C(=O)O[C@H]1CCC=C2C=C[C@H](C)[C@H](CC[C@@H]3C[C@@H](O)CC(=O)O3)[C@H]21 [compactin] | more affinity | – | – |
| CC[C@H](C)C(=O)O[C@H]1C[C@@H](C)C=C2C=C[C@H](C)[C@H](CC[C@@H]3C[C@@H](O)CC(=O)O3)[C@H]21 [lovastatin] | more affinity | – | – |
| C=CCSCC=C [GOS, diallyl sulfide] | – | concentration dependent | best control response |
